Measured values published in patent US9708314B2, “Heterocyclic amide compound” (NISSAN CHEMICAL INDUSTRIES, LTD., priority 2013, dated 2017).

What was measured:
Assay type in all cases: in vivo
[1] = tested on: Abutilon theophrasti; assay: Test Example 4: herbicidal effect by application to foliage (diluvial soil, plastic box); conditions: 320 g/ha; for M (Abutilon theophrasti) herbicidal effect grade: foliage application; for herbicidal effect, M (Abutilon theophrasti): application to foliage
Summary of the method: (§1)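 Scores run from 0 (herbicidal ratio ≤5%) to 5 (≥90%, almost fully withered) and were assessed three weeks after foliar spraying. Seedlings had been raised for 14 days at 25-30° C in sterilized diluvial soil before treatment, with the emulsion diluted in water to the stated g/ha dose.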

[2] = tested on: Amaranthus retroflexus; assay: as above; conditions: 320 g/ha; for N (Amaranthus retroflexus) herbicidal effect grade: foliage application; for herbicidal effect, N (Amaranthus retroflexus): application to foliage
Summary of the method: as §1

[3] = tested on: Veronica persica; assay: as above; conditions: 320 g/ha; for R (Veronica persica) herbicidal effect grade: foliage application; for herbicidal effect, R (Veronica persica): application to foliage
Summary of the method: as §1

[4] = tested on: Setaria viridis; assay: as above; conditions: 320 g/ha; for G (Setaria viridis) herbicidal effect grade: foliage application; for herbicidal effect, G (Setaria viridis): application to foliage
Summary of the method: as §1

[5] = tested on: Echinochloa crus-galli var. crus-galli; assay: as above; conditions: 320 g/ha; for H (Echinochloa crus-galli var. crus-galli) herbicidal effect grade: foliage application; for herbicidal effect, H (Echinochloa crus-galli var. crus-galli): application to foliage
Summary of the method: as §1

[6] = tested on: Apera spica-venti.; assay: as above; conditions: 320 g/ha; for L (Apera spica-venti.) herbicidal effect grade: foliage application; for herbicidal effect, L (Apera spica-venti.): application to foliage
Summary of the method: as §1

[7] = tested on: Alopecurus myosuroides; assay: as above; conditions: 320 g/ha; for J (Alopecurus myosuroides) herbicidal effect grade: foliage application; for herbicidal effect, J (Alopecurus myosuroides): application to foliage
Summary of the method: as §1

[8] = tested on: Lolium multiflorum Lam.; assay: as above; conditions: 320 g/ha; for K (Lolium multiflorum Lam.) herbicidal effect grade: foliage application; for herbicidal effect, K (Lolium multiflorum Lam.): application to foliage
Summary of the method: as §1

[9] = tested on: Chenopodium album; assay: as above; conditions: 320 g/ha; for O (Chenopodium album) herbicidal effect grade: foliage application; for herbicidal effect, O (Chenopodium album): application to foliage
Summary of the method: as §1

[10] = tested on: Avena fatua; assay: as above; conditions: 320 g/ha; for I (Avena fatua) herbicidal effect grade: foliage application; for herbicidal effect, I (Avena fatua): application to foliage
Summary of the method: as §1

[11] = tested on: Stellaria media; assay: as above; conditions: 320 g/ha; for P (Stellaria media) herbicidal effect grade: foliage application; for herbicidal effect, P (Stellaria media): application to foliage
Summary of the method: as §1

[12] = tested on: Digitaria ciliaris; assay: as above; conditions: 320 g/ha; for F (Digitaria ciliaris) herbicidal effect grade: foliage application; for herbicidal effect, F (Digitaria ciliaris): application to foliage
Summary of the method: as §1

[13] = tested on: Monochoria vaginalis; assay: Test Example 2: herbicidal activity, application during weed generation in submerged conditions; conditions: Eighteenth Table; application herbicide amount 320 g/ha
Summary of the method: (§2)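 Alluvial soil in Wagner pots flooded to 4 cm water depth; seeds sown mixed, grown in greenhouse at 25–30 °C. At one- to two-leaf stage, emulsion diluted with water to the set rate (g/ha) was applied to the water surface. Effect scored 0–5 by herbicidal ratio three weeks later.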

[14] = tested on: Echinochloa oryzacola Vasing.; assay: as above; conditions: Eighteenth Table; application herbicide amount 320 g/ha
Summary of the method: as §2

[15] = tested on: Scirpus juncoides; assay: as above; conditions: Eighteenth Table; application herbicide amount 320 g/ha
Summary of the method: as §2

Compound	M (Abutilon theophrasti) herbicidal effect grade [1]	N (Amaranthus retroflexus) herbicidal effect grade [2]	R (Veronica persica) herbicidal effect grade [3]	G (Setaria viridis) herbicidal effect grade [4]	H (Echinochloa crus-galli var. crus-galli) herbicidal effect grade [5]	L (Apera spica-venti.) herbicidal effect grade [6]	J (Alopecurus myosuroides) herbicidal effect grade [7]	K (Lolium multiflorum Lam.) herbicidal effect grade [8]	O (Chenopodium album) herbicidal effect grade [9]	I (Avena fatua) herbicidal effect grade [10]	P (Stellaria media) herbicidal effect grade [11]	F (Digitaria ciliaris) herbicidal effect grade [12]	C (Monochoria vaginalis) herbicidal ratio grade [13]	A (Echinochloa oryzicola Vasing.) herbicidal ratio grade [14]	B (Scirpus juncoides) herbicidal ratio grade [15]	herbicidal effect, M (Abutilon theophrasti) [1]	herbicidal effect, N (Amaranthus retroflexus) [2]	herbicidal effect, R (Veronica persica) [3]	herbicidal effect, G (Setaria viridis) [4]	herbicidal effect, H (Echinochloa crus-galli var. crus-galli) [5]	also measured
Cn1nnnc1NC(=O)c1ccc(C(F)(F)F)n2c(CC[S+](C)[O-])nnc12 (stereo not drawn) [2-058]	5 (Herbicidal ratio of 90% or more (almost completely withered))	5 (Herbicidal ratio of 90% or more (almost completely withered))	5 (Herbicidal ratio of 90% or more (almost completely withered))	5 (Herbicidal ratio of 90% or more (almost completely withered))	5 (Herbicidal ratio of 90% or more (almost completely withered))	4 (Herbicidal ratio of 70% or more and less than 90%)	4 (Herbicidal ratio of 70% or more and less than 90%)	4 (Herbicidal ratio of 70% or more and less than 90%)	5 (Herbicidal ratio of 90% or more (almost completely withered))	5 (Herbicidal ratio of 90% or more (almost completely withered))	5 (Herbicidal ratio of 90% or more (almost completely withered))	5 (Herbicidal ratio of 90% or more (almost completely withered))	4 (Herbicidal ratio of 70% or more and less than 90%)	4 (Herbicidal ratio of 70% or more and less than 90%)	4 (Herbicidal ratio of 70% or more and less than 90%)						
COc1ccc(CSc2nnc3c(C(=O)Nc4nnnn4C)ccc(C(F)(F)F)n23)cc1 [2-077]													2 (Herbicidal ratio of 20% or more and less than 40%)	2 (Herbicidal ratio of 20% or more and less than 40%)	2 (Herbicidal ratio of 20% or more and less than 40%)	4 (Herbicidal ratio of 70% or more and less than 90%)	5 (Herbicidal ratio of 90% or more (almost completely withered))	3 (Herbicidal ratio of 40% or more and less than 70%)	2 (Herbicidal ratio of 20% or more and less than 40%)	4 (Herbicidal ratio of 70% or more and less than 90%)	herbicidal effect, L (Apera spica-venti.) [6]: 0 (Herbicidal ratio of 5% or less (almost no effect)); herbicidal effect, J (Alopecurus myosuroides) [7]: 0 (Herbicidal ratio of 5% or less (almost no effect)); herbicidal effect, K (Lolium multiflorum Lam.) [8]: 0 (Herbicidal ratio of 5% or less (almost no effect)); herbicidal effect, O (Chenopodium album) [9]: 5 (Herbicidal ratio of 90% or more (almost completely withered)); herbicidal effect, I (Avena fatua) [10]: 0 (Herbicidal ratio of 5% or less (almost no effect)); herbicidal effect, P (Stellaria media) [11]: 4 (Herbicidal ratio of 70% or more and less than 90%); herbicidal effect, F (Digitaria ciliaris) [12]: 4 (Herbicidal ratio of 70% or more and less than 90%)
COCCN(C)c1nnc2c(C(=O)Nc3nnnn3C)ccc(C(F)(F)F)n12 [2-079]													5 (Herbicidal ratio of 90% or more (almost completely withered))	5 (Herbicidal ratio of 90% or more (almost completely withered))	5 (Herbicidal ratio of 90% or more (almost completely withered))	5 (Herbicidal ratio of 90% or more (almost completely withered))	5 (Herbicidal ratio of 90% or more (almost completely withered))	5 (Herbicidal ratio of 90% or more (almost completely withered))	5 (Herbicidal ratio of 90% or more (almost completely withered))	5 (Herbicidal ratio of 90% or more (almost completely withered))	herbicidal effect, L (Apera spica-venti.) [6]: 5 (Herbicidal ratio of 90% or more (almost completely withered)); herbicidal effect, J (Alopecurus myosuroides) [7]: 4 (Herbicidal ratio of 70% or more and less than 90%); herbicidal effect, K (Lolium multiflorum Lam.) [8]: 2 (Herbicidal ratio of 20% or more and less than 40%); herbicidal effect, O (Chenopodium album) [9]: 5 (Herbicidal ratio of 90% or more (almost completely withered)); herbicidal effect, I (Avena fatua) [10]: 3 (Herbicidal ratio of 40% or more and less than 70%); herbicidal effect, P (Stellaria media) [11]: 5 (Herbicidal ratio of 90% or more (almost completely withered)); herbicidal effect, F (Digitaria ciliaris) [12]: 5 (Herbicidal ratio of 90% or more (almost completely withered))
CCC[S+]([O-])c1nnc2c(C(=O)Nc3nnnn3C)ccc(C(F)(F)F)n12 (stereo not drawn) [2-069]	5 (Herbicidal ratio of 90% or more (almost completely withered))	5 (Herbicidal ratio of 90% or more (almost completely withered))	5 (Herbicidal ratio of 90% or more (almost completely withered))	5 (Herbicidal ratio of 90% or more (almost completely withered))	5 (Herbicidal ratio of 90% or more (almost completely withered))	4 (Herbicidal ratio of 70% or more and less than 90%)	3 (Herbicidal ratio of 40% or more and less than 70%)	3 (Herbicidal ratio of 40% or more and less than 70%)	5 (Herbicidal ratio of 90% or more (almost completely withered))	5 (Herbicidal ratio of 90% or more (almost completely withered))	5 (Herbicidal ratio of 90% or more (almost completely withered))	5 (Herbicidal ratio of 90% or more (almost completely withered))	5 (Herbicidal ratio of 90% or more (almost completely withered))	5 (Herbicidal ratio of 90% or more (almost completely withered))	5 (Herbicidal ratio of 90% or more (almost completely withered))						
Cn1nnnc1NC(=O)c1ccc(C(F)(F)F)n2c(-c3cc(Cl)cc(Cl)c3)nnc12 [2-064]	5 (Herbicidal ratio of 90% or more (almost completely withered))	5 (Herbicidal ratio of 90% or more (almost completely withered))	5 (Herbicidal ratio of 90% or more (almost completely withered))	2 (Herbicidal ratio of 20% or more and less than 40%)	3 (Herbicidal ratio of 40% or more and less than 70%)	0 (Herbicidal ratio of 5% or less (almost no effect))	0 (Herbicidal ratio of 5% or less (almost no effect))	0 (Herbicidal ratio of 5% or less (almost no effect))	5 (Herbicidal ratio of 90% or more (almost completely withered))	0 (Herbicidal ratio of 5% or less (almost no effect))	5 (Herbicidal ratio of 90% or more (almost completely withered))	3 (Herbicidal ratio of 40% or more and less than 70%)	3 (Herbicidal ratio of 40% or more and less than 70%)	3 (Herbicidal ratio of 40% or more and less than 70%)	4 (Herbicidal ratio of 70% or more and less than 90%)						
